Tests used:
[1] = tested on: Pol I transcription; experiment: In vitro transcription: TIF-IA mutants restoring rDNA transcription of nuclear extract from density-arrested FM3A cells; type: biochemical, murine
Experimental: (A) Transcriptional activity of TIF-IA mutants in vitro. FLAG-tagged wild-type TIF-IA and the indicated single or double point mutants were overexpressed in HEK293T cells, immunopurified, and 20 and 40 ng were assayed for their capability to restore rDNA transcriptional activity of nuclear extract from density-arrested FM3A cells. The amount and purity of TIF-IA were estimated on silver-stained SDS-polyacrylamide gels and Western blots (data not shown).
(A) Transcriptional activity of TIF-IAS199A and TIF-IAS199D in vitro. FLAG-tagged wild-type TIF-IA and the indicated mutants were immunopurified from HEK293T cells, and 30 and 60 ng were assayed for their capability to restore transcriptional activity of nuclear extract from density-arrested FM3A cells. The amount and purity of TIF-IA were estimated on silver-stained SDS-polyacrylamide gels (data not shown).
(B) Transcriptional activity of TIF-IAS44A in vitro. FLAG-tagged wild-type TIF-IA and the indicated mutant were assayed for their transcriptional activity in vitro.
(§1) Nuclear extracts were prepared from exponentially growing (8×10^5 cells/ml), density-arrested or PD98059-treated (CN Bioscience, Bad Soden, Germany) 40 μM, 0.5 hr) or rapamycin-treated FM3A cells (ATCC, Manassas, USA). 25 μl assays contained 50 ng of template DNA (pMr600/EcoRI), 30 μg nuclear extract proteins and 12 mM Hepes-KOH, [pH8.0], 0.1 mM EDTA, 5 mM MgCl2, 80 mM KCl, 10 mM creatine phosphate, 12% (v/v) glycerol, 0.66 mM each of ATP, GTP and CTP, 0.01 mM UTP and 0.5 μCi [α-^32P]UTP (5000 Ci/mmol). After incubation for 60 min at 30° C., RNA was extracted and analyzed on non-denaturing 5% polyacrylamide gels
TIF-IA was immunopurified from untransfected NIH3T3 cells or from HEK293T cells overexpressing FLAG-tagged TIF-IA. 4×10^6 cells were lysed in 0.8 ml IP buffer (20 mM Tris-HCl [pH 7.4], 200 mM NaCl, 2 mM EDTA, 2 mM EGTA, 1% Triton X-100, 0.5 mM PMSF, 1 μg/ml aprotinin, 5 μg/ml leupeptin and 1 μg/ml pepstatin A), centrifuged at 10,000 g for 30 min, and the supernatants were incubated for 4 hr at 4° C. with either 10 μg anti-TIF-IA antibodies bound to 20 μl protein G-agarose or with anti-FLAG (M2) agarose (Sigma-Aldrich Corp., Missouri, USA). The immunocomplexes were successively washed with buffer AM (20 mM Tris-HCl [pH 8.0], 5 mM MgCl2, 0.1 mM EDTA, 20% glycerol) containing 400 and 100 mM KCl, respectively. The amount and purity of TIF-IA was estimated on silver-stained polyacrylamide gels and similar amounts of bead-bound TIF-IA were used in in vitro transcription assays. GST fusion proteins were expressed in E. coli BL21(DE3) and purified on Glutathione-Sepharose 4B according to the manufacturer's instructions.
To assess the functional relevance of S633 and S649 phosphorylation on transcriptional activity, the respective S→A and S→D single or double point mutants were purified from transfected cells and assayed for their capability to rescue transcription of extracts from density-arrested cells. […] Thus, phosphorylation of TIF-IA at S649 and S633 is required for transcriptional activity.
Phosphorylation of peptide a should inhibit TIF-IA activity, while phosphorylation of peptide b, e.g. S44, should augment TIF-IA activity.

[2] = tested on: HEK293T cells; experiment: Quantitative fluorimetric viability assay with calcein-AM; type: cell-based; conditions: 24, 36, 48 and 60 hr after transfection; 2 μM calcein-AM
Experimental: (B) Quantitative fluorimetric viability assay with calcein-AM. HEK293T cells were transfected with TIF-IA or the indicated point mutants. […] Viable cells were measured 24, 36, 48 and 60 hr after transfection by incubation with […] calcein-AM. The gradual increase in fluorescence intensity was recorded with a fluorescence multi-well plate reader for 20 min with an excitation wavelength of 485 nm and an emission wavelength of 530 nm. The proliferation rate of mock-transfected cells and cells overexpressing TIF-IA is shown at the left. Plots show the accumulation of calcein fluorescence (arbitrary units) against time. Growth rates calculated from linear regression curves are shown at the right. Values are presented as the mean±SD from three independent experiments performed in duplicates.
Conversion of calcein-AM (calcein acetoxymethyl ester, (CN Bioscience GmbH, Bad Soden, Germany) to calcein was used to measure cell proliferation. 12 hr after transfection, HEK293T cells were seeded to 96-well micro-plates at 1×10^4 cells/well. After 24, 36, 48 and 60 hr, cells were washed with PBS, incubated with 2 μM calcein-AM, and the gradual increase in fluorescence intensity within the cells was recorded by a fluorescence multi-well plate reader (CytoFluor Series 4000/TC, PerSeptive Biosystems, (Applied Biosystems, Forster City, USA) for 20 min in 1 min intervals. Excitation wavelength used for measurements of fluorescence was 485 nm with a bandwidth of 20 nm; emission wavelength was 530 nm with a bandwidth of 25 nm. Under the experimental conditions used, there is a direct correlation between the accumulation ratio of intracellular calcein fluorescence and the number of viable cells. The data from three independent experiments were analyzed by Sigmaplot and expressed as the mean±standard deviation. For statistical analysis, student's t test was used. Differences with a P<0.01 were considered statistically significant.
Given the functional significance of ERK/RSK-directed TIF-IA phosphorylation on Pol I transcription, mutations that enhance or abrogate TIF-IA activity may have a positive or negative effect on cell growth. To test this, HEK293T cells were transfected with cDNAs encoding wild-type or mutant TIF-IA which harbor single or double point mutations at S649 and S633. The expression of TIF-IA was estimated on Western blots and the cellular growth rate was measured by calcein-AM staining. Calcein-AM is a non-fluorescent, hydrophobic compound that is rapidly hydrolyzed by intracellular esterases releasing hydrophilic fluorescent calcein. Thus, cellular calcein fluorescence correlates with the amount of viable cells. […] Cells expressing FLAG-tagged wild-type or mutant TIF-IA were stained with FITC-conjugated anti-FLAG antibodies, identified by FACS and cell numbers were calculated by measuring the ratio of stained cells versus an internal standard. […] Conversely, the number of cells expressing TIF-IAS649A was 33% lower than the control. […] Taken together, the results reveal a striking correlation between phosphorylation of TIF-IA at serine 649, cellular rRNA synthetic activity and cell cycle progression.

[3] = tested on: TIF-IB/SL1; experiment: Co-immunoprecipitation of TIF-IB/SL1 with TIF-IA mutants from HEK293T cells; type: binding, human
Experimental: (§2) (B) A mutant that mimics phosphorylation of TIF-IA at S199 fails to interact with Pol I and TIF-IB. FLAG-tagged wild-type TIF-IA or the indicated point mutants were overexpressed in HEK293T cells and immunoprecipitated from cell lysates with anti-FLAG antibodies (M2 agarose). Co-precipitated Pol I and TIF-IB/SL1 were visualized on Western blots with anti-RPA116 and anti-TAFI110 antibodies.
(§3) Immunoprecipitations were carried out from human cells overexpressing FLAG-tagged TIF-IA. Cells were lysed in IP buffer, cleared by centrifugation at 10,000×g for 30 min, and the supernatants were incubated for 4 hr at 4° C. with anti-FLAG (M2) agarose (Sigma). To analyze the interaction of TIF-IA with TIF-IB/SL1, the immunoprecipitates were washed with IP buffer and TIF-IB/SL1 was visualized on immunoblots with α-TAFI110 antibodies. To monitor the interaction of TIF-IA with Pol I, the immunoprecipitates were washed with IP buffer containing 600 mM NaCl and Pol I was analyzed on Western blots using antibodies against the second largest subunit of Pol I (RPA116) or PAF67 (Seither et al., J. Biol. Chem. 382 (2001), 1163-1170).
(§4) Given the importance of mTOR-mediated alterations in the phosphorylation pattern on TIF-IA activity, one could predict that either phosphorylation of S199, dephosphorylation of S44 or both regulate the interaction of TIF-IA with the Pol I transcription apparatus. It was therefore examined whether the S→A or S→D point mutant(s) were capable of interacting with Pol I and/or TIF-IB/SL1. For this, TIF-IA was precipitated from cells overexpressing either FLAG-tagged wild-type TIF-IA or the respective S199 and S44 mutant(s), and co-precipitated Pol I and TIF-IB/SL1 were visualized on Western blots.

[4] = tested on: Pol I; experiment: Co-immunoprecipitation of Pol I with TIF-IA mutants from HEK293T cells; type: binding, human
Experimental: as §2, §3, §4

[5] = tested on: Pol I transcription; experiment: In vitro transcription: TIF-IA mutants added to nuclear extract from exponentially growing FM3A cells; type: biochemical, murine; conditions: 20 and 40 ng added to 15 ug nuclear extract
Experimental: 20 and 40 ng of the indicated TIF-IA mutants were added to 15 ug nuclear extract from exponentially growing FM3A cells and rDNA transcription was assayed.
as §1
Given that phosphorylation of TIF-IA at serine 649 is essential for transcription, excess of TIF-IAS649A should impair Pol I transcription. To test this, we examined the effect of exogenous wild-type and mutant TIF-IA on transcriptional activity of extracts from exponentially growing cells.

[6] = S633/S649 mutants, 20 and 40 ng
[7] = S199 and S44 mutants, 30 and 60 ng

Substance | capability to rescue transcription of extracts from density-arrested cells [1, 6] | cellular growth rate by calcein-AM staining [2] | capability to rescue transcription of extracts from density-arrested cells [1, 7] | interaction with TIF-IB/SL1 (co-precipitated TAFI110) [3] | interaction with Pol I (co-precipitated RPA116) [4] | effect on transcriptional activity of extracts from exponentially growing cells [5]
TIF-IAS633DS649D: TIF-IA double mutant, serines 633 and 649 replaced by aspartic acid | TIF-IA activity was increased | accelerated cell growth |  |  |  | 
TIF-IAS199D: TIF-IA mutant, replacement of S199 by aspartic acid |  |  | abolished TIF-IA activity | no association of either Pol I or TIF-IB/SL1 could be detected | no association of either Pol I or TIF-IB/SL1 could be detected | 
TIF-IAS199A: the mutant in which S199 was changed to alanine |  |  | activated Pol I transcription like wild-type TIF-IA | interacted with both Pol I and TIF-IB/SL1 | interacted with both Pol I and TIF-IB/SL1 | 
TIF-IAS633AS649A: TIF-IA double mutant, serines 633 and 649 replaced by alanine | abolished TIF-IA activity | impaired cell growth |  |  |  | 
TIF-IAS633A: TIF-IA point mutant, serine 633 replaced by alanine | abolished TIF-IA activity |  |  |  |  | suppressed transcription well below the basal level
S633D: TIF-IA point mutant, serine 633 replaced by aspartic acid | less active than wild-type TIF-IA |  |  |  |  | 
